Measurements published in patent publication US10420341B2, “Herbicidal phenylpyrimidines” (BASF SE, priority 2015, dated 2019).

Columns and labels:
APESV = test: greenhouse pre-emergence herbicidal test; assay type: in vivo, Apera spica-venti; conditions: pre-emergence method, scale from 0 to 100
How it was run: (§1)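 Damage was rated on a 0 to 100 scale, where 0 is normal growth and 100 is no emergence or full destruction of aerial parts, after 2 to 4 weeks. Treatment was applied pre-emergence, right after sowing, as an aqueous suspension or emulsion via fine nozzles.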

ECHCG [1] = test: greenhouse pre-emergence herbicidal test; assay type: in vivo, Echinocloa crus-galli; conditions: pre-emergence method, scale from 0 to 100
How it was run: as §1

ABUTH = test: greenhouse post-emergence herbicidal test; assay type: in vivo, Abutilon theophrasti; conditions: post-emergence method, scale from 0 to 100
Excerpt: (§2) The seeds of the test plants were sown separately for each species. For the post-emergence treatment, the test plants were first grown to a height of 3 to 15 cm, depending on the plant habit, and only then treated with the active ingredients which had been suspended or emulsified in water. For this purpose, the test plants were either sown directly and grown in the same containers, or they were first grown separately as seedlings and transplanted into the test containers a few days prior to treatment. Depending on the species, the plants were kept at 10-25° C. or 20-35° C., respectively. The test period extended over 2 to 4 weeks. During this time, the plants were tended, and their response to the individual treatments was evaluated. Evaluation was carried out using a scale from 0 to 100. 100 means no emergence of the plants, or complete destruction of at least the aerial moieties, and 0 means no damage, or normal course of growth. […] The plants used in the greenhouse experiments were of the following species: [table]

AMARE = test: greenhouse post-emergence herbicidal test; assay type: in vivo, Amaranthus retroflexus; conditions: post-emergence method, scale from 0 to 100
How it was run: (§3)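 Post-emergence; plants at 3–15 cm, treated with aqueous suspension/emulsion of compound. 10–25 °C or 20–35 °C per species, 2–4 wk. Score 0 (no damage) to 100 (aerial parts destroyed).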

ECHCG [2] = test: greenhouse post-emergence herbicidal test; assay type: in vivo, Echinocloa crus-galli; conditions: post-emergence method, scale from 0 to 100
How it was run: as §3

ALOMY [3] = test: greenhouse post-emergence herbicidal test; assay type: in vivo, Alopercurus myosuroides; conditions: post-emergence method, scale from 0 to 100
How it was run: as §3

POLCO = test: greenhouse post-emergence herbicidal test; assay type: in vivo, Polygonum convolvulus; conditions: post-emergence method, application rate 1000 g/ha, scale from 0 to 100
Excerpt: as §2

ALOMY [4] = test: greenhouse pre-emergence herbicidal test; assay type: in vivo, Alopercurus myosuroides; conditions: pre-emergence method, application rate 500 g/ha, scale from 0 to 100
Excerpt: The seeds of the test plants were sown separately for each species. For the pre-emergence treatment, the active ingredients, which had been suspended or emulsified in water, were applied directly after sowing by means of finely distributing nozzles. The containers were irrigated gently to promote germination and growth and subsequently covered with transparent plastic hoods until the plants had rooted. This cover caused uniform germination of the test plants, unless this had been impaired by the active ingredients. Depending on the species, the plants were kept at 10-25° C. or 20-35° C., respectively. The test period extended over 2 to 4 weeks. During this time, the plants were tended, and their response to the individual treatments was evaluated. Evaluation was carried out using a scale from 0 to 100. 100 means no emergence of the plants, or complete destruction of at least the aerial moieties, and 0 means no damage, or normal course of growth. […] The plants used in the greenhouse experiments were of the following species: [table]

Row | Compound | herbicidal activity against APESV (APESV; application rate 1000 g/ha) | herbicidal activity against ABUTH (ABUTH; application rate 1000 g/ha) | herbicidal activity against ECHCG (ECHCG [2]; application rate 1000 g/ha) | herbicidal activity against ALOMY (ALOMY [4]) | herbicidal activity against APESV (APESV; application rate 500 g/ha) | herbicidal activity against ECHCG (ECHCG [1]; application rate 500 g/ha) | herbicidal activity against ALOMY (ALOMY [3]; application rate 500 g/ha) | herbicidal activity against ECHCG (ECHCG [2]; application rate 500 g/ha) | other results
1 | CC(C)c1ncc(-c2ccccc2Cl)c(C(=O)O)n1 [example 32] | very good (a very good herbicidal activity is given at values of at least 85) | very good (a very good herbicidal activity is given at values of at least 85) |  |  |  |  |  |  | herbicidal activity against ECHCG (ECHCG [1]; application rate 1000 g/ha): very good (a very good herbicidal activity is given at values of at least 85); herbicidal activity against AMARE (AMARE; application rate 1000 g/ha): good (A good herbicidal activity is given at values of at least 70)
2 | CCC(C)c1ncc(-c2ccccc2C)c(C(=O)O)n1 (centres unmarked) [example 41] | very good (a very good herbicidal activity is given at values of at least 85) | very good (a very good herbicidal activity is given at values of at least 85) | good (A good herbicidal activity is given at values of at least 70) |  |  |  |  |  | 
3 | COc1ncc(-c2cc(C)ccc2C)c(C(=O)O)n1 [example 54] | very good (a very good herbicidal activity is given at values of at least 85) | good (A good herbicidal activity is given at values of at least 70) |  |  |  |  |  |  | herbicidal activity against ECHCG (ECHCG [1]; application rate 1000 g/ha): very good (a very good herbicidal activity is given at values of at least 85); herbicidal activity against ALOMY (ALOMY [3]; application rate 1000 g/ha): very good (a very good herbicidal activity is given at values of at least 85); herbicidal activity against AMARE (AMARE; application rate 1000 g/ha): very good (a very good herbicidal activity is given at values of at least 85)
4 | CSc1ncc(-c2cccc(Cl)c2Cl)c(C(=O)O)n1 [example 90] |  |  |  |  |  |  |  |  | herbicidal activity against ABUTH (ABUTH; application rate 2000 g/ha): good (A good herbicidal activity is given at values of at least 70); herbicidal activity against AMARE (AMARE; application rate 2000 g/ha): very good (a very good herbicidal activity is given at values of at least 85); herbicidal activity against ECHCG (ECHCG [2]; application rate 2000 g/ha): very good (a very good herbicidal activity is given at values of at least 85)
5 | CSc1ncc(-c2ccc(F)cc2C)c(C(=O)O)n1 [example 94] |  | good (A good herbicidal activity is given at values of at least 70) | very good (a very good herbicidal activity is given at values of at least 85) |  |  |  |  |  | herbicidal activity against POLCO (POLCO): very good (a very good herbicidal activity is given at values of at least 85)
6 | O=C(O)c1nc(C2CC2)ncc1-c1ccccc1F [example 132] |  |  |  | very good (a very good herbicidal activity is given at values of at least 85) | very good (a very good herbicidal activity is given at values of at least 85) | very good (a very good herbicidal activity is given at values of at least 85) | very good (a very good herbicidal activity is given at values of at least 85) | very good (a very good herbicidal activity is given at values of at least 85) | 
7 | O=C(O)c1nc(C2CC2)ncc1-c1cc(F)ccc1Cl [example 142] |  |  |  | very good (a very good herbicidal activity is given at values of at least 85) | very good (a very good herbicidal activity is given at values of at least 85) | very good (a very good herbicidal activity is given at values of at least 85) | very good (a very good herbicidal activity is given at values of at least 85) | very good (a very good herbicidal activity is given at values of at least 85) | 
8 | O=C(O)c1nc(C2CC2)ncc1-c1ccc(F)cc1Cl [example 146] |  |  |  | very good (a very good herbicidal activity is given at values of at least 85) | very good (a very good herbicidal activity is given at values of at least 85) | very good (a very good herbicidal activity is given at values of at least 85) | very good (a very good herbicidal activity is given at values of at least 85) |  | 
9 | O=C(O)c1nc(C2CC2)ncc1-c1cccc(F)c1Cl [example 150] | very good (a very good herbicidal activity is given at values of at least 85) | very good (a very good herbicidal activity is given at values of at least 85) |  |  |  |  |  |  | herbicidal activity against ECHCG (ECHCG [1]; application rate 1000 g/ha): very good (a very good herbicidal activity is given at values of at least 85); herbicidal activity against ALOMY (ALOMY [3]; application rate 1000 g/ha): very good (a very good herbicidal activity is given at values of at least 85)
10 | Cc1cccc(C)c1-c1cnc(C2CC2)nc1C(=O)O [example 162] |  |  |  | very good (a very good herbicidal activity is given at values of at least 85) | very good (a very good herbicidal activity is given at values of at least 85) | very good (a very good herbicidal activity is given at values of at least 85) | very good (a very good herbicidal activity is given at values of at least 85) | very good (a very good herbicidal activity is given at values of at least 85) | 
11 | COc1cc(C)c(-c2cnc(C3CC3)nc2C(=O)O)cc1C [example 169] | very good (a very good herbicidal activity is given at values of at least 85) | very good (a very good herbicidal activity is given at values of at least 85) | good (A good herbicidal activity is given at values of at least 70) |  |  |  |  |  | 
12 | COC(=O)c1nc(C2CC2)ncc1-c1cc(F)ccc1Cl [example 203] |  |  |  | very good (a very good herbicidal activity is given at values of at least 85) | very good (a very good herbicidal activity is given at values of at least 85) | very good (a very good herbicidal activity is given at values of at least 85) | good (A good herbicidal activity is given at values of at least 70) | very good (a very good herbicidal activity is given at values of at least 85) | 
13 | COC(=O)c1nc(C2CC2)ncc1-c1cc(C)ccc1Cl [example 205] |  |  |  | good (A good herbicidal activity is given at values of at least 70) | very good (a very good herbicidal activity is given at values of at least 85) | very good (a very good herbicidal activity is given at values of at least 85) | good (A good herbicidal activity is given at values of at least 70) | very good (a very good herbicidal activity is given at values of at least 85) | 
14 | COC(=O)c1nc(C2CC2)ncc1-c1ccc(F)cc1Cl [example 207] |  |  |  | very good (a very good herbicidal activity is given at values of at least 85) | very good (a very good herbicidal activity is given at values of at least 85) | very good (a very good herbicidal activity is given at values of at least 85) | good (A good herbicidal activity is given at values of at least 70) |  | 
15 | COC(=O)c1nc(C2CC2)ncc1-c1cc(C)c(OC)cc1C [example 232] | very good (a very good herbicidal activity is given at values of at least 85) | very good (a very good herbicidal activity is given at values of at least 85) | very good (a very good herbicidal activity is given at values of at least 85) |  |  |  |  |  | herbicidal activity against ECHCG (ECHCG [1]; application rate 1000 g/ha): very good (a very good herbicidal activity is given at values of at least 85)
16 | Cc1ccccc1-c1cnc(C2CCC2)nc1C(=O)O [example 263] | good (A good herbicidal activity is given at values of at least 70) | very good (a very good herbicidal activity is given at values of at least 85) | very good (a very good herbicidal activity is given at values of at least 85) |  |  |  |  |  | 
